Among the data in BindingDB's records for doi:10.1016/j.bmcl.2007.11.067 (Bristol-Myers Squibb, 2008) are IC50 values, retold here.

Some results are limits rather than exact numbers.

One test is described as follows: Antagonist activity at human CCR3 receptor in human eosinophil assessed as inhibition of eotaxin-induced chemotaxis.
As to `C[C@H](CC(=O)N1CCC[C@@H](Cc2ccc(F)cc2)C1)NC(=O)Nc1cccc(-c2nnnn2C)c1`, the IC50 was found to be 0.2 nM.

With `C[C@H](CCN1CCC[C@@H](Cc2ccc(F)cc2)C1)NC(=O)Nc1cc(-n2cccn2)cc(-n2cccn2)c1`, the IC50 is 0.1 nM.

As for `CC(=O)c1cc(NC(=O)N[C@@H](C)CCN2CCC[C@@H](Cc3ccc(F)cc3)C2)cc(C(C)=O)c1`, the concentration for half-maximal inhibition (IC50) worked out at 60 nM.

Consider `CCc1cc(NC(=O)N[C@H](C)CCN2CCC[C@@H](Cc3ccc(F)cc3)C2)cc(-c2nnnn2C)c1`, for which the half-maximal inhibitory concentration (IC50) was found to be 0.02 nM.

In the case of `C[C@H](CCN1CCC[C@@H](Cc2ccc(F)cc2)C1)NC(=O)Nc1cccc(-c2nnnn2C)c1`, the concentration for half-maximal inhibition (IC50) worked out at 1.1 nM.

Consider `O=C(NCCCN1CCC[C@@H](Cc2ccc(F)cc2)C1)Nc1cc(-n2cccn2)cc(-n2cccn2)c1`, for which the IC50 amounted to 5 nM.

For the compound `CC(C)c1cc(NC(=O)NCCCN2CCC[C@@H](Cc3ccc(F)cc3)C2)cc(-c2nnnn2C)c1`, the 50% inhibitory concentration (IC50) was found to be 0.3 nM.

In the case of `CC(C)c1cc(NC(=O)N[C@H](C)CCN2CCC[C@@H](Cc3ccc(F)cc3)C2)cc(-c2nnnn2C)c1`, the IC50 was determined as 0.021 nM.

In the case of `C[C@@H](CCN1CCC[C@@H](Cc2ccc(F)cc2)C1)NC(=O)Nc1cccc(-c2nnnn2C)c1`, the IC50 is above 1 nM.

Take `CCC[C@H](CCN1CCC[C@@H](Cc2ccc(F)cc2)C1)NC(=O)Nc1cc(-c2nnnn2C)cc(C(C)(C)O)c1`: the IC50 is 0.011 nM.

On to `CC[C@H](CCN1CCC[C@@H](Cc2ccc(F)cc2)C1)NC(=O)Nc1cc(-c2nnnn2C)cc(C(C)(C)O)c1`, for which the IC50 was 0.1 nM.

As for `CC(=O)c1cc(NC(=O)N[C@H](C)CCN2CCC[C@@H](Cc3ccc(F)cc3)C2)cc(-c2nnnn2C)c1`, the concentration for half-maximal inhibition (IC50) is 0.02 nM.

On to `CC(=O)c1cc(NC(=O)N[C@H](C)CCN2CCC[C@@H](Cc3ccc(F)cc3)C2)cc(C(C)=O)c1`, for which the 50% inhibitory concentration (IC50) came out at 0.2 nM.

Regarding `CC(=O)c1cccc(NC(=O)NCCCN2CCC[C@@H](Cc3ccc(F)cc3)C2)c1` [1-(3-Acetyl-phenyl)-3-{3-[(S)-3-(4-fluoro-benzyl)-piperidin-1-yl]-propyl}-urea], the IC50 worked out at 25 nM.

Turning to `Cn1nnnc1-c1cccc(NC(=O)NCCCN2CCC[C@@H](Cc3ccc(F)cc3)C2)c1` [1-{3-[(S)-3-(4-Fluoro-benzyl)-piperidin-1-yl]-propyl}-3-[3-(1-methyl-1H-tetrazol-5-yl)-phenyl]-urea], the IC50 amounted to 3.2 nM.

In the case of `Cc1cc(NC(=O)NCCCN2CCC[C@@H](Cc3ccc(F)cc3)C2)cc(-c2nnnn2C)c1` [1-{3-[(S)-3-(4-Fluoro-benzyl)-piperidin-1-yl]-propyl}-3-[3-methyl-5-(1-methyl-1H-tetrazol-5-yl)-phenyl]-urea], the concentration for half-maximal inhibition (IC50) worked out at 1 nM.

Regarding `C[C@@H](NC(=O)Nc1cccc(-c2nnnn2C)c1)[C@@H](O)CN1CCC[C@@H](Cc2ccc(F)cc2)C1` [1-{(1R,2S)-3-[(S)-3-(4-Fluoro-benzyl)-piperidin-1-yl]-2-hydroxy-1-methyl-propyl}-3-[3-(1-methyl-1H-tetrazol-5-yl)-phenyl]-urea], the IC50 came to 0.04 nM.

On to `CC(=O)c1cc(NC(=O)NCCCN2CCC[C@@H](Cc3ccc(F)cc3)C2)cc(C(C)=O)c1` [(S)-1-(3-(3-(4-fluorobenzyl)piperidin-1-yl)propyl)-3-(3,5-diacetylphenyl)urea], for which the IC50 is 3 nM.

A short description of the next test: Antagonist activity at CCR3 receptor in mouse eosinophil assessed as as inhibition of chemotaxis.
Consider `C[C@@H](NC(=O)Nc1cccc(-c2nnnn2C)c1)[C@@H](O)CN1CCC[C@@H](Cc2ccc(F)cc2)C1` [1-{(1R,2S)-3-[(S)-3-(4-Fluoro-benzyl)-piperidin-1-yl]-2-hydroxy-1-methyl-propyl}-3-[3-(1-methyl-1H-tetrazol-5-yl)-phenyl]-urea], for which the IC50 worked out at 870 nM.

Another test in a line: Antagonist activity at CCR3 receptor in cynomolgus monkey eosinophil assessed as as inhibition of chemotaxis.
Turning to `C[C@@H](NC(=O)Nc1cccc(-c2nnnn2C)c1)[C@@H](O)CN1CCC[C@@H](Cc2ccc(F)cc2)C1` [1-{(1R,2S)-3-[(S)-3-(4-Fluoro-benzyl)-piperidin-1-yl]-2-hydroxy-1-methyl-propyl}-3-[3-(1-methyl-1H-tetrazol-5-yl)-phenyl]-urea], the IC50 is 0.15 nM.
